Reference: patent publication US4122034A, “Antimicrobial compositions” (Schering Corporation, priority 1975, dated 1978)
In brackets after ≈: the same amount, converted by molar mass.

Assays:
Bacteroides fragilis = test: In vitro activity against anaerobes in fluid Thioglycollate medium (Table II); type: cell-based
Outline: (§1)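 Values are MICs, the lowest concentrations that inhibit growth, determined by standard procedures with scoring when needed.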

[1] = test system: Bacteroides melaninogenicus; test: as above; type: cell-based
Outline: as §1

Clostridium novyi = test: as above; type: cell-based
Outline: as §1

Clostridium septicum = test: as above; type: cell-based
Outline: as §1

Bacteroides corrodens = test: as above; type: cell-based; conditions: Eikenella corrodens
Outline: as §1

Peptostreptococcus = test: as above; type: cell-based
Outline: as §1

Clostridium histolyticum = test: as above; type: cell-based; conditions: Hathewaya histolytica
Outline: as §1

Eubacterium lentum = test: as above; type: cell-based; conditions: Eggerthella lenta
Outline: as §1

[2] = Acute toxicity in mice (Table V); conditions: mouse, in vivo
Experimental: (§2) All the tests were carried out and (when necessary) scored under standard conditions. "MIC" means "minimum inhibitory concentration."
Acute Toxicity of 2-aminoalkyl-3-phenylindoles of the formula I

Trychomonas vaginalis = test: In vitro Anti-Trichomonal activity (Table VII); type: cell-based
Experimental: as §2
In vitro Anti-Trichomonal Activity of some 2-aminoalkyl-3-
phenyl-indenes of formula II.

Candida albicans = test: In vitro Anti-Candida activity, dilutions in Sabouraud's Dextrose Agar (Table III); type: cell-based; conditions: 48 h
Experimental: as §2
In vitro Anti-Candida Activity of 2-aminoalkyl-3-phenyl-
indoles of the formula I. Dilutions in Sabouraud's Dextrose
MIC (mcg/ml) after 48 hours

Tricoderm sp. = test: In vitro antifungal activity, dilutions in Sabouraud's Dextrose Broth (Table IV); type: cell-based; conditions: after 96 hours
Outline: (§3)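 The reported value is the MIC, the lowest concentration that inhibits the organism. It was obtained by dilution in broth under standard conditions.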

Trichophyton discoides = test: as above; type: cell-based; conditions: after 96 hours
Outline: as §3

[3] = test system: Trichophyton schoenleinii; test: as above; type: cell-based; conditions: 96 h
Outline: as §3

Trichophyton ferrugineum = test: as above; type: cell-based; conditions: Microsporum ferrugineum; after 96 hours
Outline: as §3

Microsporum distortum = test: as above; type: cell-based; conditions: after 96 hours
Outline: as §3

Epidermophyton floccosum = test: as above; type: cell-based; conditions: after 96 hours
Outline: as §3

Microsporum nanum = test: as above; type: cell-based; conditions: Nannizzia nana; after 96 hours
Outline: as §3

Trichophyton soudenense = test: as above; type: cell-based; conditions: after 96 hours
Outline: as §3

Trichophyton megninii = test: as above; type: cell-based; conditions: Trichophyton rubrum; after 96 hours
Outline: as §3

Trichophyton tonsurans = test: as above; type: cell-based; conditions: after 96 hours
Outline: as §3

Trichophyton gallinae = test: as above; type: cell-based; conditions: after 96 hours
Outline: as §3

Aspergillus niger 6275 = test: as above; type: cell-based; conditions: after 96 hours
Outline: as §3

Trichophyton ascoides = test: as above; type: cell-based; conditions: after 96 hours
Outline: as §3

Trichophyton rubrum = test: as above; type: cell-based; conditions: 96 h
Outline: as §3

Aspergillus sp. No. 3 = test: as above; type: cell-based; conditions: after 96 hours
Outline: as §3

[4] = test system: Trichophyton mentagrophytes; test: as above; type: cell-based; conditions: 96 h
Outline: as §3

Proteus mirabilis = test: In vitro antibacterial activity, dilution in Mueller Hinton Agar (Table I); type: cell-based; conditions: Mueller Hinton Agar pH 7.4
Outline: (§4)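 Compounds were diluted into agar buffered at pH 7.4 and tested under standard conditions. The lowest concentration inhibiting growth was reported as the MIC.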

Enterococcus = test: as above; type: cell-based
Outline: as §4

Staphylococcus aureus = test: as above; type: cell-based; conditions: Mueller Hinton Agar pH 7.4
Outline: as §4

NCc1[nH]c2cc(Br)c(Cl)cc2c1-c1ccccc1 [D, 2-aminomethyl-6-bromo-5-chloro-3-phenylindole]
MIC (Bacteroides fragilis; 48 hrs): 0.75 µg/mL (≈ 2.23 µM) | MIC (Bacteroides fragilis; 72 hrs): 0.75 µg/mL (≈ 2.23 µM) | MIC ([1]; 48 hrs): 3 µg/mL (≈ 8.94 µM) | MIC ([1]; 72 hrs): 3 µg/mL (≈ 8.94 µM) | MIC (Clostridium novyi; 48 hrs): 0.75 µg/mL (≈ 2.23 µM) | MIC (Clostridium novyi; 72 hrs): 0.75 µg/mL (≈ 2.23 µM) | MIC (Clostridium septicum; 48 hrs): 0.75 µg/mL (≈ 2.23 µM) | MIC (Clostridium septicum; 72 hrs): 0.75 µg/mL (≈ 2.23 µM) | MIC (Bacteroides corrodens; 48 hrs): 0.75 µg/mL (≈ 2.23 µM) | MIC (Bacteroides corrodens; 72 hrs): 0.75 µg/mL (≈ 2.23 µM) | MIC (Peptostreptococcus; 48 hrs): 0.3 µg/mL (≈ 0.894 µM) | MIC (Peptostreptococcus; 72 hrs): 0.3 µg/mL (≈ 0.894 µM) | MIC (Clostridium histolyticum; 48 hrs): 0.3 µg/mL (≈ 0.894 µM) | MIC (Clostridium histolyticum; 72 hrs): 0.3 µg/mL (≈ 0.894 µM) | MIC (Eubacterium lentum; 48 hrs): 0.75 µg/mL (≈ 2.23 µM) | MIC (Eubacterium lentum; 72 hrs): 0.75 µg/mL (≈ 2.23 µM) | LD50 ([2]; Oral): ~950 mg/kg | LD50 ([2]; ip, I.P.): 175 mg/kg | LD50 ([2]; sc, S.C.): 750 mg/kg | IC50 (Trychomonas vaginalis; 50% suppression, read-out: Minimal Level to Produce 50% Suppression): 20 µg/mL (≈ 59.6 µM) | IC90 (Trychomonas vaginalis; 90% suppression, read-out: Minimal Level to Produce 90% Suppression): 38 µg/mL (≈ 113 µM) | MIC (Candida albicans; strain 1, after 48 hours): 150 µg/mL (≈ 447 µM) | MIC (Candida albicans; strain 2, after 48 hours): 150 µg/mL (≈ 447 µM) | MIC (Candida albicans; strain 3, after 48 hours): 75 µg/mL (≈ 223 µM) | MIC (Candida albicans; strain 4, after 48 hours): 37.5 µg/mL (≈ 112 µM) | MIC (Candida albicans; strain 5, after 48 hours): 75 µg/mL (≈ 223 µM) | MIC (Candida albicans; strain 6, after 48 hours): 150 µg/mL (≈ 447 µM) | MIC (Candida albicans; strain 8, after 48 hours): 150 µg/mL (≈ 447 µM) | MIC (Candida albicans; strain 9, after 48 hours): 150 µg/mL (≈ 447 µM) | MIC (Candida albicans; strain 29, after 48 hours): 75 µg/mL (≈ 223 µM) | MIC (Candida albicans; strain Atkisson, after 48 hours): 150 µg/mL (≈ 447 µM) | MIC (Candida albicans; strain Bertrand, after 48 hours): 150 µg/mL (≈ 447 µM) | MIC (Candida albicans; strain Bevan, after 48 hours): 150 µg/mL (≈ 447 µM) | MIC (Candida albicans; strain Blunden, after 48 hours): 17.5 µg/mL (≈ 52.1 µM) | MIC (Candida albicans; strain Bognay, after 48 hours): 75 µg/mL (≈ 223 µM) | MIC (Candida albicans; strain Boyer, after 48 hours): 150 µg/mL (≈ 447 µM) | MIC (Candida albicans; strain Burke, after 48 hours): 150 µg/mL (≈ 447 µM) | MIC (Candida albicans; strain Burnside, after 48 hours): 75 µg/mL (≈ 223 µM) | MIC (Candida albicans; strain Collins, after 48 hours): 75 µg/mL (≈ 223 µM) | MIC (Candida albicans; strain Fix, after 48 hours): 75 µg/mL (≈ 223 µM) | MIC (Candida albicans; strain Frazier, after 48 hours): 150 µg/mL (≈ 447 µM) | MIC (Candida albicans; strain Fulcher, after 48 hours): 75 µg/mL (≈ 223 µM) | MIC (Candida albicans; strain Gay, after 48 hours): 150 µg/mL (≈ 447 µM) | MIC (Candida albicans; strain Hons, after 48 hours): 150 µg/mL (≈ 447 µM) | MIC (Candida albicans; strain Johnson, after 48 hours): 150 µg/mL (≈ 447 µM) | MIC (Candida albicans; strain Kenndy 2, after 48 hours): 150 µg/mL (≈ 447 µM) | MIC (Candida albicans; strain Kennedy 1, after 48 hours): 17.5 µg/mL (≈ 52.1 µM) | MIC (Candida albicans; strain Lehtman, after 48 hours): 150 µg/mL (≈ 447 µM) | MIC (Candida albicans; strain Lusk, after 48 hours): 75 µg/mL (≈ 223 µM) | MIC (Candida albicans; strain Merkel, after 48 hours): 75 µg/mL (≈ 223 µM) | MIC (Candida albicans; strain Newcomb, after 48 hours): 17.5 µg/mL (≈ 52.1 µM) | MIC (Candida albicans; strain Sherod, after 48 hours): 150 µg/mL (≈ 447 µM) | MIC (Candida albicans; strain Shurelli, after 48 hours): 150 µg/mL (≈ 447 µM) | MIC (Candida albicans; strain Sparks, after 48 hours): 150 µg/mL (≈ 447 µM) | MIC (Candida albicans; strain Tyner, after 48 hours): 75 µg/mL (≈ 223 µM) | MIC (Tricoderm sp.): 7.5 µg/mL (≈ 22.3 µM) | MIC (Trichophyton discoides): 7.5 µg/mL (≈ 22.3 µM) | MIC ([3]; strain 2, after 96 hours): 7.5 µg/mL (≈ 22.3 µM) | MIC ([3]; strain not given, after 96 hours): 7.5 µg/mL (≈ 22.3 µM) | MIC (Trichophyton ferrugineum): 17.5 µg/mL (≈ 52.1 µM) | MIC (Microsporum distortum): 3 µg/mL (≈ 8.94 µM) | MIC (Epidermophyton floccosum): 7.5 µg/mL (≈ 22.3 µM) | MIC (Microsporum nanum): 3 µg/mL (≈ 8.94 µM) | MIC (Trichophyton soudenense): 3 µg/mL (≈ 8.94 µM) | MIC (Trichophyton megninii): 3 µg/mL (≈ 8.94 µM) | MIC (Trichophyton tonsurans): 17.5 µg/mL (≈ 52.1 µM) | MIC (Trichophyton gallinae): 75 µg/mL (≈ 223 µM) | MIC (Aspergillus niger 6275): 17.5 µg/mL (≈ 52.1 µM) | MIC (Trichophyton ascoides): 7.5 µg/mL (≈ 22.3 µM) | MIC (Trichophyton rubrum; strain 3, after 96 hours): 3 µg/mL (≈ 8.94 µM) | MIC (Trichophyton rubrum; strain 360, after 96 hours): 3 µg/mL (≈ 8.94 µM) | MIC (Trichophyton rubrum; strain Blehl, after 96 hours): 7.5 µg/mL (≈ 22.3 µM) | MIC (Trichophyton rubrum; strain Haggerty, after 96 hours): 7.5 µg/mL (≈ 22.3 µM) | MIC (Aspergillus sp. No. 3): 17.5 µg/mL (≈ 52.1 µM) | MIC ([4]; strain A, after 96 hours): 7.5 µg/mL (≈ 22.3 µM) | MIC ([4]; strain B, after 96 hours): 3 µg/mL (≈ 8.94 µM) | MIC ([4]; strain C, after 96 hours): 3 µg/mL (≈ 8.94 µM) | MIC ([4]; strain H377, after 96 hours): 7.5 µg/mL (≈ 22.3 µM) | MIC ([4]; strain Young, after 96 hours): 7.5 µg/mL (≈ 22.3 µM) | MIC (Proteus mirabilis; pH 7.4, strain Hard): 3 µg/mL (≈ 8.94 µM) | MIC (Proteus mirabilis; pH 7.4, strain Peras): 3 µg/mL (≈ 8.94 µM) | MIC (Enterococcus; pH 7.4, strain 373, Mueller Hinton Agar pH 7.4): 3 µg/mL (≈ 8.94 µM) | MIC (Enterococcus; pH 7.4, strain 0928/72, Mueller Hinton Agar pH 7.4): 3 µg/mL (≈ 8.94 µM) | MIC (Staphylococcus aureus; 209P, pH 7.4, strain 209P): 3 µg/mL (≈ 8.94 µM) | MIC (Staphylococcus aureus; pH 7.4, strain 59N): 3 µg/mL (≈ 8.94 µM) | MIC (Staphylococcus aureus; pH 7.4, strain Gray): 3 µg/mL (≈ 8.94 µM) | MIC (Staphylococcus aureus; pH 7.4, strain Wood): 3 µg/mL (≈ 8.94 µM) | MIC (Staphylococcus aureus; pH 7.4, strain Zeigler): 3 µg/mL (≈ 8.94 µM)
